Laboratory results: paper PMC9196137 (SLAS discovery : advancing life sciences R & D, 2022)

Molecular target: Mcm2–7 complex
Assay: thermal shift assay
Format: binding, Saccharomyces cerevisiae

Structure (SMILES): CNC(=O)c1cc2c(cn1)[nH]c1ccccc12 [CMA, β-carboline-3-carboxylic acid N-methylamide]
- Kd: 119 µM
